Where two headings read alike, the source gives them in different places.
Legend:
[1] = Intermediate endpoint study in patients with TIA/minor stroke: plasma concentration of valproic acid; type: in vivo, human; conditions: 400 mg enteric-coated tablet with delayed absorption, oral, once daily at 11 pm, clock time
Description: (§1) An intermediate endpoint proof-of-concept study is performed in patients with TIA/minor stroke investigated before and after treatment with Valproic acid. Valproic acid is administrated as an enteric-coated tablet with delayed absorption.
(§2) The study comprises 20 patients with TIA/minor stroke. Patients are investigated before and after oral treatment with 400 mg valproic acid once time daily at 11 pm for 2 weeks. Plasma PAI-1 levels and plasma concentrations of valproic acid is followed daily during the study period at the following time-points: 3 am, 6 am, 10 am, 16 pm, 22 pm PAI-1 levels are measured by commercially available ELISA-kits (Coaliza PA-1, Chromogenix AB) and the plasma concentration of valproic acid an metabolites thereof is analyzed according to clinical routine at the Sahlgrenska University laboratory, Gothenburg, Sweden.

PAI-1 [2] = conditions: cultured endothelial cells; no decrease of PAI-1 mRNA levels after VPA treatment; slight but significant; cited from earlier work
PAI-1 [3] = assay: Proof-of-concept study in healthy subjects: plasma PAI-1 before and after valproic acid; type: in vivo, human; conditions: p<0.05
Description: (§3) The effects of VPA on PAI-1 were analysed in two different proof-of-concept studies in healthy subjects as well as in patients with manifest atherosclerotic disease. […] PAI-1 plasma levels were measured in the morning at the first day of the study as well as at the end of the treatment period with VPA (see example 2 for details on the PAI-1 analysis).
In the first study, 10 healthy non-smoking white male subjects (with mean BMI of approximately 26), aged 50-70 years were included and treated with valproic acid 500 mg (Ergenyl Retard. Sanofi) twice daily during 14 days.

PAI-1 [4] = conditions: in vivo model in mouse (Larsson, Alwis et al. 2016); cited from earlier work
PAI-1 [5] = assay: Proof-of-concept study in patients with a history of myocardial infarction: plasma PAI-1 before and after valproic acid; type: in vivo, human; conditions: midmorning, p=0.01; for reduction in circulating plasma PAI-1 levels: 16 male patients aged 50-80 with history of myocardial infarction, valproic acid 500 mg (Ergenyl Retard, Sanofi) twice daily 28 days on top of ordinary prescription
Description: as §3
In the second study, 16 non-smoking white male patients, aged 50-80 years with a history of a myocardial infarction were included. On top of their ordinary prescription (beta-blocker, ACE-inhibitor, statin, aspirin) they were treated with valproic acid 500 mg (Ergenyl Retard, Sanofi), twice daily during 28 days.

PAI-1 [6] = assay: Intermediate endpoint study in patients with TIA/minor stroke: plasma PAI-1 levels; type: in vivo, human; conditions: 20 patients with TIA/minor stroke; 400 mg valproic acid enteric-coated tablet with delayed absorption, once daily at 11 pm for 2 weeks
Description: as §1, §2

PAI-1 [7] = conditions: in vivo model in pig (Svennerholm et al. 2014); cited from earlier work

- time of peak plasma concentration of valproic acid [1]: peak between 3 am and 6 am
Compound: CCCC(CCC)C(=O)O [valproic acid, 2-propylpentanoic acid]
- increase in PAI-1 production (PAI-1 [2]): 30%
- reduction in circulating plasma PAI-1 levels (PAI-1 [3]; 10 healthy non-smoking male subjects aged 50-70, valproic acid 500 mg (Ergenyl Retard, Sanofi) twice daily 14 days, mid-morning vs before treatment): more than 50%
- circulating plasma PAI-1 level after treatment (PAI-1 [3]; healthy male subjects, 500 mg (Ergenyl Retard) twice daily 14 days, mid-morning, from 22.2 ng/ml before treatment): 10.8 ng/mL
- effects on plasma PAI-1 (PAI-1 [4]): did not detect any effects
- reduction in circulating plasma PAI-1 levels (PAI-1 [5]): 45%
- reduction in circulating plasma PAI-1 levels (PAI-1 [5]; listed as VPA): about 45%
- circulating plasma PAI-1 level after treatment (PAI-1 [5]; patients with history of myocardial infarction, 500 mg (Ergenyl Retard) twice daily 28 days, from 19.6 ng/ml before treatment): 11 ng/mL
- plasma PAI-1 levels lowered after the treatment (PAI-1 [6]): approximately 30%
- effects on plasma PAI-1 (PAI-1 [7]): did not detect any effects

Source: US12023311B2, “Delayed release pharmaceutical formulations comprising valproic acid, and uses thereof” (Cereno Scientific AB, priority 2016, dated 2024)
